# Target: T1, ΔF508-CFTR (Homo sapiens, UniProt P13569, DEL508-508)
# T1 construct: expressed in transfected cells
# Assay: Membrane potential optical (FRET/VIPR) assay, identification of potentiator compounds
# Type: cell-based
# Conditions: Table 3, assay not given; for % Activity: relative efficacy
# Outline: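 Double-addition potentiator screen: compound delivered in gluconate-substituted Cl^--free medium, membrane potential followed via CC2-DMPE/DiSBAC2(3) FRET on VIPR. Cells were ΔF508-CFTR-expressing NIH3T3 mouse fibroblasts, held 2 h at 37° C. then 24 h at 27° C. before assay.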
# T1 sequence (P13569 with tags, fused parts or gaps DEL508-508): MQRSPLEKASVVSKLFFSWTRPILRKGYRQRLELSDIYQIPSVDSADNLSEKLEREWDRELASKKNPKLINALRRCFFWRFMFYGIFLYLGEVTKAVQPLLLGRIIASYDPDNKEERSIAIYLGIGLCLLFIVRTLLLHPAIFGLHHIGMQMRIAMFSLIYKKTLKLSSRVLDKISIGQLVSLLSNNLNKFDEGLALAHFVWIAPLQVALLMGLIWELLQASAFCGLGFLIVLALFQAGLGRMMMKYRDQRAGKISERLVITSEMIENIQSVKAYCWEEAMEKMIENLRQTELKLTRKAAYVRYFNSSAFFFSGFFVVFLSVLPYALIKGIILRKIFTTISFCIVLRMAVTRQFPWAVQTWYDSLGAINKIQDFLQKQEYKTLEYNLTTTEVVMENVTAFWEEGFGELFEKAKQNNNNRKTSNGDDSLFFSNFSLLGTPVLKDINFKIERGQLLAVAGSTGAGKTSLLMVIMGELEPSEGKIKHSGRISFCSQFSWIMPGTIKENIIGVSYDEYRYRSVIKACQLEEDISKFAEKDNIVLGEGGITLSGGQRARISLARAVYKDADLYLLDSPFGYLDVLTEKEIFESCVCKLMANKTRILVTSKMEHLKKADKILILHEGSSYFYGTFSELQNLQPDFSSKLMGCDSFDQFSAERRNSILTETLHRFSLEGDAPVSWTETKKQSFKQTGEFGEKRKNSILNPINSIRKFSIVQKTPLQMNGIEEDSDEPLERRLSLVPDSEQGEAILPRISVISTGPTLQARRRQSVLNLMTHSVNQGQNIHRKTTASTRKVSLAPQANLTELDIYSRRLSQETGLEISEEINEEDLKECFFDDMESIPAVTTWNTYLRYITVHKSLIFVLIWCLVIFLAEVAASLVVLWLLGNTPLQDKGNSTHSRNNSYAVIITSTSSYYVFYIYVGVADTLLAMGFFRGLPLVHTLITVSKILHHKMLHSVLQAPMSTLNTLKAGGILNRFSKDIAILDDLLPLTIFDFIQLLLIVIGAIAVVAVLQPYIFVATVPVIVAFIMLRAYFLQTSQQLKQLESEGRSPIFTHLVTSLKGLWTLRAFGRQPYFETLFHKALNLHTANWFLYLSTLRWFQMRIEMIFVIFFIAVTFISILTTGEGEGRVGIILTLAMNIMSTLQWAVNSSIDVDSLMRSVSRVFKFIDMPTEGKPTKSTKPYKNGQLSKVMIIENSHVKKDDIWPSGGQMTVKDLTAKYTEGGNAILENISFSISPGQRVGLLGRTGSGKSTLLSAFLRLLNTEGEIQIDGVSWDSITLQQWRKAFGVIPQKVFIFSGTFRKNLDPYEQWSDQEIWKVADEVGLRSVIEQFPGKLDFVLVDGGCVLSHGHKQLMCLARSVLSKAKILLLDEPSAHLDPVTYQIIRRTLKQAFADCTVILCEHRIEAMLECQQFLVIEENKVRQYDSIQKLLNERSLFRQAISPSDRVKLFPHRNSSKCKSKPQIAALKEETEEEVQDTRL
SMILES,EC50,% Activity
"CCOc1ccc2[nH]cc(C(=O)Nc3cc(O)c(C(C)(C)C)cc3C(C)(C)C)c(=O)c2c1 [Compound 524, 6-ethoxy-N-(5-hydroxy-2,4-ditert-butyl-phenyl)-4-oxo-1H-quinoline-3-carboxamide]",< 10 µM,++ (between 25% to 100%)
"CC(C)(C)c1cc(C(C)(C)C)c(NC(=O)c2c[nH]c3ccc(C#N)cc3c2=O)cc1O [Compound 525, 6-cyano-N-(5-hydroxy-2,4-ditert-butyl-phenyl)-4-oxo-1H-quinoline-3-carboxamide]",< 10 µM,+ (<25%)
"CCOc1cccc2c(=O)c(C(=O)Nc3cc(O)c(C(C)(C)C)cc3F)c[nH]c12 [Compound 526, 8-ethoxy-N-(2-fluoro-5-hydroxy-4-tert-butyl-phenyl)-4-oxo-1H-quinoline-3-carboxamide]",10 to 25 µM,+ (<25%)
"CC1(c2ccc(NC(=O)c3c[nH]c4cccc(O)c4c3=O)cc2)COC1 [Compound 529, 5-hydroxy-N-[4-(3-methyloxetan-3-yl)phenyl]-4-oxo-1H-quinoline-3-carboxamide]",< 10 µM,++ (between 25% to 100%)
"COc1ccc2[nH]cc(C(=O)Nc3cc4[nH]ccc4cc3C(C)(C)C)c(=O)c2c1 [Compound 533, 6-methoxy-4-oxo-N-(5-tert-butyl-1H-indol-6-yl)-1H-quinoline-3-carboxamide]",< 10 µM,+++ (>100%)
"CC(C)(C)c1c[nH]c2cc(NC(=O)c3c[nH]c4cccc(O)c4c3=O)ccc12 [Compound 535, 5-hydroxy-4-oxo-N-(3-tert-butyl-1H-indol-6-yl)-1H-quinoline-3-carboxamide]",< 10 µM,++ (between 25% to 100%)
"CNc1cccc2[nH]cc(C(=O)Nc3cc(O)c(C(C)(C)C)cc3C(C)(C)C)c(=O)c12 [Compound 542, N-(5-hydroxy-2,4-ditert-butyl-phenyl)-5-methylamino-4-oxo-1H-quinoline-3-carboxamide]",< 10 µM,+++ (>100%)
"CN(C)c1ccc2[nH]cc(C(=O)Nc3cc(O)c(C(C)(C)C)cc3C(C)(C)C)c(=O)c2c1 [Compound 544, 6-dimethylamino-N-(5-hydroxy-2,4-ditert-butyl-phenyl)-4-oxo-1H-quinoline-3-carboxamide]",< 10 µM,++ (between 25% to 100%)
"CC(C)(C)c1cc(C(C)(C)C)c(NC(=O)c2c[nH]c3cc(C#N)ccc3c2=O)cc1O [Compound 548, 7-cyano-N-(5-hydroxy-2,4-ditert-butyl-phenyl)-4-oxo-1H-quinoline-3-carboxamide]",< 10 µM,++ (between 25% to 100%)
"O=C(Nc1cccc(-c2cccs2)c1)c1c[nH]c2ccccc2c1=O [Compound 549, 4-oxo-N-[3-(2-thienyl)phenyl]-1H-quinoline-3-carboxamide]",< 10 µM,++ (between 25% to 100%)
"COC(=O)[C@@H]1C[C@@H](OC(C)(C)C)CN1c1ccc(NC(=O)c2c[nH]c3ccccc3c2=O)c(C(F)(F)F)c1 [Compound 550, (2S,4R)-methyl 4-tert-butoxy-1-(4-(4-oxo-1,4-dihydroquinoline-3-carboxamido)-3-(trifluoromethyl)phenyl)pyrrolidine-2-carboxylate]",< 10 µM,++ (between 25% to 100%)
"O=C(Nc1cc(O)c2ccccc2c1)c1c[nH]c2ccccc2c1=O [Compound 551, N-(4-hydroxy-2-naphthyl)-4-oxo-1H-quinoline-3-carboxamide]",–,++ (between 25% to 100%)
"CC(C)(C)c1cc(C(C)(C)C)c(NC(=O)c2c[nH]c3ccc(Br)cc3c2=O)cc1O [Compound 553, 6-bromo-N-(5-hydroxy-2,4-ditert-butyl-phenyl)-4-oxo-1H-quinoline-3-carboxamide]",< 10 µM,++ (between 25% to 100%)
"CC(C)(C)c1c[nH]c2cc(NC(=O)c3c[nH]c4ccc(F)cc4c3=O)ccc12 [Compound 554, 6-fluoro-4-oxo-N-(3-tert-butyl-1H-indol-6-yl)-1H-quinoline-3-carboxamide]",< 10 µM,++ (between 25% to 100%)

# Further lines, results first:
EC50,% Activity,SMILES
< 10 µM,++ (between 25% to 100%),"CC1(c2ccc(NC(=O)c3c[nH]c4ccccc4c3=O)cc2)COC1 [Compound 523, N-[4-(3-methyloxetan-3-yl)phenyl]-4-oxo-1H-quinoline-3-carboxamide]"
< 10 µM,++ (between 25% to 100%),"CC(C)(C)c1ccc(NC(=O)c2c[nH]c3ccc(F)cc3c2=O)cc1F [Compound 527, 6-fluoro-N-(3-fluoro-4-tert-butyl-phenyl)-4-oxo-1H-quinoline-3-carboxamide]"
< 10 µM,++ (between 25% to 100%),"Cc1cccc2[nH]cc(C(=O)Nc3ccc(N4CCC(F)(F)C4)cc3C(F)(F)F)c(=O)c12 [Compound 528, N-[4-(3,3-difluoropyrrolidin-1-yl)-2-(trifluoromethyl)phenyl]-5-methyl-4-oxo-1H-quinoline-3-carboxamide]"
< 10 µM,++ (between 25% to 100%),"COC(=O)[C@@H]1[C@@H](C)CCN1c1ccc(NC(=O)c2c[nH]c3ccccc3c2=O)c(C(F)(F)F)c1 [Compound 530, (2S,3S)-methyl 3-methyl-1-(4-(4-oxo-1,4-dihydroquinoline-3-carboxamido)-3-(trifluoromethyl)phenyl)pyrrolidine-2-carboxylate]"
< 10 µM,++ (between 25% to 100%),"COC(=O)[C@@H]1[C@H]2C[C@H]2CN1c1ccc(NC(=O)c2c[nH]c3ccccc3c2=O)c(C(F)(F)F)c1 [Compound 531, (1S,2S,5R)-methyl 3-(4-(4-oxo-1,4-dihydroquinoline-3-carboxamido)-3-(trifluoromethyl)phenyl)-3-azabicyclo[3.1.0]hexane-2-carboxylate]"
< 10 µM,++ (between 25% to 100%),"O=C(Nc1ccc(C(F)(F)F)cc1Cl)c1c[nH]c2ccccc2c1=O [Compound 532, N-[2-chloro-4-(trifluoromethyl)phenyl]-4-oxo-1H-quinoline-3-carboxamide]"
< 10 µM,++ (between 25% to 100%),"CN(C)[C@@H]1CCN(c2ccc(NC(=O)c3c[nH]c4ccccc4c3=O)c(C(F)(F)F)c2)C1 [Compound 534, (R)-N-(4-(3-(dimethylamino)pyrrolidin-1-yl)-2-(trifluoromethyl)phenyl)-4-oxo-1,4-dihydroquinoline-3-carboxamide]"
< 10 µM,++ (between 25% to 100%),"CC1(C)CCN(c2ccc(NC(=O)c3c[nH]c4ccccc4c3=O)c(C(F)(F)F)c2)C1 [Compound 536, N-[4-(3,3-dimethylpyrrolidin-1-yl)-2-(trifluoromethyl)phenyl]-4-oxo-1H-quinoline-3-carboxamide]"
< 10 µM,++ (between 25% to 100%),"O=C(Nc1ccc2cc(C(F)(F)F)[nH]c2c1)c1c[nH]c2ccccc2c1=O [Compound 537, 4-oxo-N-[2-(trifluoromethyl)-1H-indol-6-yl]-1H-quinoline-3-carboxamide]"
< 10 µM,++ (between 25% to 100%),"Cc1cc(OC(F)(F)F)ccc1NC(=O)c1c[nH]c2ccccc2c1=O [Compound 538, N-[2-methyl-4-(trifluoromethoxy)phenyl]-4-oxo-1H-quinoline-3-carboxamide]"
< 10 µM,++ (between 25% to 100%),"Cc1cccc2[nH]cc(C(=O)Nc3ccc(N4[C@H](C)CC[C@H]4C)cc3C(F)(F)F)c(=O)c12 [Compound 539, N-(4-((2R,5R)-2,5-dimethylpyrrolidin-1-yl)-2-(trifluoromethyl)phenyl)-5-methyl-4-oxo-1,4-dihydroquinoline-3-carboxamide]"
< 10 µM,+++ (>100%),"CC(C)(C)OC(=O)[C@H]1CCCN1c1ccc(NC(=O)c2c[nH]c3ccccc3c2=O)c(C(F)(F)F)c1 [Compound 540, (R)-tert-butyl 1-(4-(4-oxo-1,4-dihydroquinoline-3-carboxamido)-3-(trifluoromethyl)phenyl)pyrrolidine-2-carboxylate]"
< 10 µM,++ (between 25% to 100%),"Cc1cccc2[nH]cc(C(=O)Nc3ccc(N4CC[C@@H](F)C4)cc3C(F)(F)F)c(=O)c12 [Compound 541, (R)-N-(4-(3-fluoropyrrolidin-1-yl)-2-(trifluoromethyl)phenyl)-5-methyl-4-oxo-1,4-dihydroquinoline-3-carboxamide]"
< 10 µM,+++ (>100%),"O=C(Nc1ccc2c(C(F)(F)F)c[nH]c2c1)c1c[nH]c2ccccc2c1=O [Compound 545, 4-oxo-N-[3-(trifluoromethyl)-1H-indol-6-yl]-1H-quinoline-3-carboxamide]"
< 10 µM,++ (between 25% to 100%),"Cc1cccc2[nH]cc(C(=O)Nc3ccc(N4CCC(C)C4)cc3C(F)(F)F)c(=O)c12 (stereo not drawn) [Compound 546, 5-methyl-N-[4-(3-methylpyrrolidin-1-yl)-2-(trifluoromethyl)phenyl]-4-oxo-1H-quinoline-3-carboxamide]"
< 10 µM,+++ (>100%),"Cc1cccc2[nH]cc(C(=O)Nc3ccc(OC(C)C)cc3C(F)(F)F)c(=O)c12 [Compound 547, N-[4-isopropoxy-2-(trifluoromethyl)phenyl]-5-methyl-4-oxo-1H-quinoline-3-carboxamide]"
< 10 µM,++ (between 25% to 100%),"CC1CCN(c2ccc(NC(=O)c3c[nH]c4ccccc4c3=O)c(C(F)(F)F)c2)C1 (stereo not drawn) [Compound 555, N-[4-(3-methylpyrrolidin-1-yl)-2-(trifluoromethyl)phenyl]-4-oxo-1H-quinoline-3-carboxamide]"
< 10 µM,++ (between 25% to 100%),"CC(C)(C)C(=O)Nc1ccc(NC(=O)c2c[nH]c3ccccc3c2=O)c(C(F)(F)F)c1 [Compound 556, N-[4-(2,2-dimethylpropanoylamino)-2-(trifluoromethyl)phenyl]-4-oxo-1H-quinoline-3-carboxamide]"
